Values of other authors, collected in US12295729B2, “Apparatus and method for delivery of antimicrobial during a transdermal sampling and delivery process” (Georgetown University, priority 2015, dated 2025).

How the values were obtained:
[1] = tested on: Burkholderia pseudomallei
[2] = tested on: Aggregatibacter actinomycetemcomitans
[3] = tested on: Prevotella melaninogenica
[4] = tested on: Stenotrophomonas maltophilia
[5] = tested on: Achromobacter xylosoxidans
[6] = tested on: Burkholderia thailandensis
[7] = tested on: Porphyromonas circumdentaria

Measured: bacteria killing ability

LL-37 (LLGDFFRKSKEKIGKEFKRIVQRIKDFLRNLVPRTES; Antibacterial peptide LL-37; UniProt P49913 134-170, looked up) [antimicrobial peptide; the factotum human cathelicidin peptide]
kill: Haemophilus influenza | Brucella suis | Pasteurella multocida | Fusobacterium nucleatum | Mycobacterium smegmatis | [1] | Francisella novicida | Helicobacter pylori | Mycobacterium bovis | Pseudomonas aeruginosa | Bacillus anthracis | [2] | Staphylococcus aureus | Burkholderia cepacia | Listeria monocytogenes | [3] | Propionibacterium acnes | Treponema denticola | Porphyromonas gingivalis | Mannheimia haemolytica | Prevotella intermedia | Group B Streptococcus | Acinetobacter baumannii | Capnocytophaga spp. | Streptococcus mutans | Shigella sp. | Salmonella sp. | [4] | [5] | [6] | Treponema pallidum | [7] | Nocardia sp. | Prevotella loescheii | Streptococcus pneumonia | Lactobacillus casei | Tannerella forsythia | Klebsiella pneumonia | Yersinia pestis | Enterococcus faecalis | Group A streptococcus | Leptospira interrogans | Borrelia spp. | Micrococcus luteus | Escherichia coli
